Measurements from ChEMBL document CHEMBL1201862, “PubChem BioAssay data set” (2004).
Activity calls are given as the source filed them. Rule as the data show it: actives have a measured AC50 and inactives only a lower limit.

Target: T1, Lysine-specific demethylase 4C (Homo sapiens, UniProt Q9H3R0)
T1 sequence (Q9H3R0 whole entry): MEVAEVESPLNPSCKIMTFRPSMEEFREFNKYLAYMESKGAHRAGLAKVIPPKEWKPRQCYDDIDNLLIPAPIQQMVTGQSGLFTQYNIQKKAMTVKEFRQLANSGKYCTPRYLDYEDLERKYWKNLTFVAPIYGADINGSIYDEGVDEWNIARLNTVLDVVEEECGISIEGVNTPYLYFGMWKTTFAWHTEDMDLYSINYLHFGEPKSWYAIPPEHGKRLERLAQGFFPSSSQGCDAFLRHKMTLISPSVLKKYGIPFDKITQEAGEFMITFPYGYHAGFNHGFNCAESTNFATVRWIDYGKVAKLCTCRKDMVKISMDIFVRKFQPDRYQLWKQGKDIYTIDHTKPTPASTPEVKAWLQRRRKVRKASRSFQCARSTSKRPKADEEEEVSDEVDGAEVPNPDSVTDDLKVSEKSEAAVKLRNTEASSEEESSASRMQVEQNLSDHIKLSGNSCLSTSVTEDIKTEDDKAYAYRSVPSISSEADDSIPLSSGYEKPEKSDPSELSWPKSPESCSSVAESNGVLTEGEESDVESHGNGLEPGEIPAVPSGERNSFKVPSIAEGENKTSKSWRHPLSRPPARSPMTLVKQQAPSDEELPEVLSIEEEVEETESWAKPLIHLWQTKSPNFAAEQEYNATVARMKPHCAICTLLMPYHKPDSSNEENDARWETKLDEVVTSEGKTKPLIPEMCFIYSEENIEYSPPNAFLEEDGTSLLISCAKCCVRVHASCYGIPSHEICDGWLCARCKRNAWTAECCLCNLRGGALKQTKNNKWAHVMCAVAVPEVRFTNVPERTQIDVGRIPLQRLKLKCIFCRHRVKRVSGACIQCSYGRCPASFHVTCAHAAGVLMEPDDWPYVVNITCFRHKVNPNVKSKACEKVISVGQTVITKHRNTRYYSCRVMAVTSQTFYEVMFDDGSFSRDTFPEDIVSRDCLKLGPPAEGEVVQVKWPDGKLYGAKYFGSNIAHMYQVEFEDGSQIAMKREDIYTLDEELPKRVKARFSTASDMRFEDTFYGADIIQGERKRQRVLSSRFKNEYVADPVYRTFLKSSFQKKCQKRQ
Experiment: GASC-1 (JMJD2C) histone demethylase inhibitors, dose response, biochemical, DELFIA europium, cherry-picked samples (AID 488835)
Type: functional

`O=C1c2ccccc2C(=O)C12OC2c1cccc2ccccc12` (stereo unspecified) was tested, and the AC50 was 6.61 µM (active).
